Source: US20250313563A1, “GLYCOGEN SYNTHASE KINASE 3 INHIBITORS AND USES THEREOF” (The Broad Institute, Inc., priority 2022, published 2025)
Like-named read-outs stand apart in the source and are kept apart here.

What was measured:
[1] = molecular target: GSK3α (GST-full length GSK3α) (Homo sapiens (Human), UniProt P49840); assay: GSK3α TR-FRET kinase assay; assay type: biochemical; conditions: 1 nM GSK3α, 4 μM ATP, 30 minute preincubation, read-out: GSK3-A TR-FRET BIOCHEMICAL (TR-FRET)
Procedure, shortened: (§1)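 Full-length GST-tagged human enzyme (1 nM) is exposed to test compound for 30 min before substrates are added. Phosphorylation of a primed biotinylated glycogen synthase peptide proceeds 100 min at room temperature at low ATP (4 μM α; 2 μM β) or high ATP (1 mM). Product is quantified by TR-FRET.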

[2] = molecular target: GSK3b (GST-full length GSK3b) (Homo sapiens (Human), UniProt P49841); assay: GSK3b TR-FRET kinase assay; assay type: biochemical; conditions: 1 nM GSK3b, 2 μM ATP, 30 minute preincubation, read-out: GSK3-B TR-FRET BIOCHEMICAL (TR-FRET)
Procedure, shortened: as §1

GSK3α (GST-full length GSK3α), sequence (P49840 whole entry): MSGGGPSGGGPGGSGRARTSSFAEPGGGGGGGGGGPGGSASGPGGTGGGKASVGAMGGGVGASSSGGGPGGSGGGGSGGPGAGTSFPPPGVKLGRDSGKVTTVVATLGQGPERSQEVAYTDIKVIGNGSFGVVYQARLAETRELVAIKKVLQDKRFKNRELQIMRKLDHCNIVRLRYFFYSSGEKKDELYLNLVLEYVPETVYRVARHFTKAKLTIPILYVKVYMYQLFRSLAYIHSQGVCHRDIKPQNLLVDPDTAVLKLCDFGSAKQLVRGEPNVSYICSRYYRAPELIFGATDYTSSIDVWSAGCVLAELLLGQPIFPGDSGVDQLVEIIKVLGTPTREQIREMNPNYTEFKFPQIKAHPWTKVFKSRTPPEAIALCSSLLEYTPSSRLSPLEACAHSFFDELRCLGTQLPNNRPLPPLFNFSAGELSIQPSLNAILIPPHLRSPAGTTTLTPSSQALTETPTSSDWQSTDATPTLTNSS
GSK3b (GST-full length GSK3b), sequence (P49841 whole entry): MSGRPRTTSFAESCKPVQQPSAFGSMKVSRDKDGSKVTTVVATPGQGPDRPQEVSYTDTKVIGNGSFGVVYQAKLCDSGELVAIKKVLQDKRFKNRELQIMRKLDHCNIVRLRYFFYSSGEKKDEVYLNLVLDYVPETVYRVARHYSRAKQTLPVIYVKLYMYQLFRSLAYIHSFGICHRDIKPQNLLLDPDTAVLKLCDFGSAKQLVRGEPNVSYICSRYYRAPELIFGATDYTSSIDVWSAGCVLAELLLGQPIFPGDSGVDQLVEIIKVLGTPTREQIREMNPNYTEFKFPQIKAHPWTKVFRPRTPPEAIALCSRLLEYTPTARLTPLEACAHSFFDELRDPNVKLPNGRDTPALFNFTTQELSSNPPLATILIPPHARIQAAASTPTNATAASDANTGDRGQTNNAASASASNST

Row | Compound | IC50 ([1]; Table 16, IC50) [nM] | IC50 ([2]; Table 16, IC50) [nM] | IC50 ([1]; Table 16) [nM] | IC50 ([2]; Table 16) [nM] | other results
1 | CCC1(c2cccc(N(C)C(=O)Cc3ccccc3)c2)C2=C(CC(C)(C)CC2=O)Nc2n[nH]cc21 (stereo not shown) [Compound 912071] | ≤ 100 | ≤ 100 |  |  | 
2 | Cc1[nH]nc2c1C1(CCOCC1)C1=C(CC(C)(C)C(F)C1=O)N2 (stereo not shown) [Compound 912072] |  |  | 100 to 1000 | 100 to 1000 | 
3 | CC1(C)CC(=O)C2=C(C1)Nc1n[nH]cc1C21CN(CC(F)F)C1 [Compound 912073] |  |  | 100 to 1000 | 100 to 1000 | 
4 | CC1(C)CC(=O)C2=C(C1)Nc1n[nH]cc1C21CN(CC(F)(F)F)C1 [Compound 912074] |  |  | ≤ 100 | 100 to 1000 | 
5 | CC1(C)CC(=O)C2=C(C1)Nc1n[nH]cc1C21CNC1 [Compound 912075] | 1000 to 5000 | > 5000 |  |  | 
6 | CC1(C)CC(=O)C2=C(C1)Nc1n[nH]cc1C21CN(C2COC2)C1 [Compound 912076] |  |  | 100 to 1000 | 1000 to 5000 | 
7 | CC1(C)CC(=O)C2=C(C1)Nc1n[nH]cc1C21CN(c2ccncc2)C1 [Compound 912077] | > 5000 | > 5000 |  |  | 
8 | C[C@H]1CC(=O)C2=C(C1)Nc1n[nH]cc1C21CCOCC1 [Compound 912078] | 100 to 1000 | 100 to 1000 |  |  | 
9 | C[C@@H]1CC(=O)C2=C(C1)Nc1n[nH]cc1C21CCOCC1 [Compound 912079] | 100 to 1000 | 100 to 1000 |  |  | 
10 | O=C1C2=C(Nc3n[nH]cc3C23CCOCC3)[C@H]2CC[C@@H]1C2 [Compound 912080] |  |  | 100 to 1000 | 100 to 1000 | 
11 | O=C1C2=C(Nc3n[nH]cc3C23CCOCC3)[C@@H]2CC[C@H]1C2 [Compound 912081] |  |  | 100 to 1000 | 1000 to 5000 | 
12 | CC1(C)CC(=O)C2=C(C1)Nc1n[nH]cc1C21CCC(c2ccccc2)CC1 (stereo not shown) [Compound 912084] |  |  | ≤ 100 | ≤ 100 | 
13 | CCC1(c2cccc(C3CCOC(C)(C)C3)c2)C2=C(CC(C)(C)CC2=O)Nc2n[nH]cc21 (stereo not shown) [Compound 912088] | 100 to 1000 | > 5000 |  |  | 
14 | CCC1(c2cccc(C3CCOC(C)(C)C3)c2)C2=C(CC(C)(C)CC2=O)Nc2n[nH]cc21 (stereo not shown) [Compound 912089] | 100 to 1000 | 100 to 1000 |  |  | 
15 | CCC1(c2cccc(C3CCOC(C)(C)C3)c2)C2=C(CC(C)(C)CC2=O)Nc2n[nH]cc21 (stereo not shown) [Compound 912090] | 100 to 1000 | > 5000 |  |  | 
16 | CC[C@]1(c2cccc([C@@H]3CCOC(C)(C)C3)c2)C2=C(CC(C)(C)CC2=O)Nc2n[nH]cc21 [Compound 912091] | > 5000 | > 5000 |  |  | 
17 | CC1(C)CC(=O)C2=C(C1)Nc1n[nH]cc1C21CCN(S(C)(=O)=O)C1 (stereo not shown) [Compound 912092] |  |  | ≤ 100 | ≤ 100 | 
18 | CC1(C)CC(=O)C2=C(C1)Nc1n[nH]cc1C21COCCOC1 [Compound 912094] | 1000 to 5000 | > 5000 |  |  | 
19 | CC[C@@]1(c2cccc(C(F)(F)F)c2)C2=C(C[C@H](C)NC2=O)Nc2n[nH]cc21 [Compound 912097] |  |  |  |  | IC50 ([1]; IC50): 100 to 1000 nM; IC50 ([2]; IC50): > 5000 nM
20 | CC[C@]1(c2cccc(C(F)(F)F)c2)C2=C(C[C@H](C)NC2=O)Nc2n[nH]cc21 [Compound 912099] |  |  |  |  | IC50 ([1]; IC50): > 5000 nM; IC50 ([2]; IC50): > 5000 nM
21 | CCC1(c2cccc(C(F)(F)F)c2)C2=C(Nc3n[nH]cc31)C(C)(C)NC2=O (stereo not shown) [Compound 912104] |  |  | ≤ 100 | 100 to 1000 | 
22 | CC1(C)CC(=O)C2=C(C1)Nc1n[nH]cc1C21CCCCC1=O (stereo not shown) [Compound 912105] | > 5000 | > 5000 |  |  | 
23 | CC1(C)CC(=O)C2=C(C1)Nc1n[nH]cc1[C@]21CCO[C@@H](C(C)(C)C)C1 [Compound 912106] | 100 to 1000 | 1000 to 5000 |  |  | 
24 | CC1(C)CC(=O)C2=C(C1)Nc1n[nH]cc1[C@@]21CCO[C@H](C(C)(C)C)C1 [Compound 912107] | > 5000 | > 5000 |  |  | 
25 | CC1(C)CC(=O)C2=C(C1)Nc1n[nH]cc1[C@]21CCO[C@H](C(C)(C)C)C1 [Compound 912112] |  |  | 100 to 1000 | 100 to 1000 | 
26 | CC1(C)CC(=O)C2=C(C1)Nc1n[nH]cc1[C@@]21CCO[C@@H](C(C)(C)C)C1 [Compound 912113] | 1000 to 5000 | 1000 to 5000 |  |  | 
